Laboratory results taken from publication PMC4698308, “A new amino acid substitution (Ala-205-Phe) in acetolactate synthase (ALS) confers broad spectrum resistance to ALS-inhibiting herbicides” (Planta, 2015).

Columns and labels:
[1] = target: T1, recombinant Arabidopsis thaliana ALS wild-type enzyme (WT—sensitive) (Arabidopsis thaliana, UniProt P17597); test: biochemical
T1 construct: Protein constructs contained an 85 amino acid N-terminal deletion (chloroplast transit peptide); Hexa-histidine tag (N); made in house
T1 sequence (P17597 86-670): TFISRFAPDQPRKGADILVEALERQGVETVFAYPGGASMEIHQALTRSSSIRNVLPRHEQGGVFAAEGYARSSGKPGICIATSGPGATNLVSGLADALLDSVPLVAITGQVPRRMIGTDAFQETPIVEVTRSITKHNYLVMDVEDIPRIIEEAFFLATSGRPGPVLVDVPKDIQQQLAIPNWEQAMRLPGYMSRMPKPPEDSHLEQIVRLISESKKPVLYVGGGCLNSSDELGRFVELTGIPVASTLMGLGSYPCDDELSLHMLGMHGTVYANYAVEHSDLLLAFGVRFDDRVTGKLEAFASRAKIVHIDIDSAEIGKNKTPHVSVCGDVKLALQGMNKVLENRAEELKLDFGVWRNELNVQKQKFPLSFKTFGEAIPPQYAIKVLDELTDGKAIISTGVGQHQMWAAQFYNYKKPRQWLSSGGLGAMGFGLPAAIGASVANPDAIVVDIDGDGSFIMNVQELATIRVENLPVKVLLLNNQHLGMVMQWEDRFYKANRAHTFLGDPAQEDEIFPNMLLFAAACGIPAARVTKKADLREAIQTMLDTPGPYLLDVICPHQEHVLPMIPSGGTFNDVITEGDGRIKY
Method in brief: (§1)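 His-tagged enzymes lacking the 85-residue N-terminal transit peptide, expressed and purified. Herbicides in DMSO added; reaction 60 min at 30 °C, stopped with H2SO4, acetolactate converted to acetoin at 56 °C for 15 min.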

[2] = system: recombinant Arabidopsis thaliana ALS variant A205V; type: biochemical; conditions: IC50 mutant divided by IC50 sensitive ALS; max inhibitor concentration 1.00 × 10^−04 M
Method in brief: as §1

[3] = system: recombinant Arabidopsis thaliana ALS variant A205F; type: biochemical; conditions: IC50 mutant divided by IC50 sensitive ALS; max inhibitor concentration 1.00 × 10^−04 M
Method in brief: as §1

[4] = system: recombinant Arabidopsis thaliana ALS variant W574L; type: biochemical; conditions: IC50 mutant divided by IC50 sensitive ALS; max inhibitor concentration 1.00 × 10^−04 M
Method in brief: as §1

[5] = system: annual bluegrass (Poa annua L.); test: Whole plant non-target site resistance experiment, foramsulfuron vs sulfometuron (control and plant height 28 days after treatment); type: in vivo
Protocol: A second experiment was conducted to determine if non-target mechanisms could confer resistance to ALS inhibiting herbicides in our annual bluegrass population, POAAN-R3. ALS-resistant (RP1–RP8) and susceptible (S) plants were cultured in plastic conical containers under previously described glasshouse conditions for 28 days before being treated with foramsulfuron (29 g ha^−1) or sulfometuron-methyl (Oust XP; Dupont Professional Products. Wilmington, DE, USA) at 105 g ai ha^−1. Sulfometuron-methyl is an ALS inhibiting herbicide not metabolized by cytochrome P450 monooxygenases; therefore, it can be used to discern if weed populations survive ALS inhibiting herbicide treatment via target- or non-target site based mechanisms (Christopher et al. [1992]). Per label recommendations, sulfometuron-methyl included non-ionic surfactant at 0.25 % v/v. Treatments were mixed in water carrier applied in an enclosed spray chamber, as previously described, on 13 March 2015.
Annual bluegrass control was visually assessed on a 0 (i.e., no control) to 100 % (i.e., complete kill) scale relative to the non-treated 28 days after treatment. After all control data had been collected, plant height data were collected using a ruler placed at the soil surface of each plastic conical container and recording the distance to the tip of the bud leaf. Treatments were arranged as a 9 × 3 factorial with nine plant selections (RP1–RP8, S) and three herbicides (foramsulfuron, sulfometuron-methyl, non-treated) in a completely randomized design with four replications and repeated in separate glasshouses during March 2015.

[6] = system: ALS in POAAN-R3 and susceptible annual bluegrass plants; set-up: method as in Brosnan et al. [2015]; conditions: increasing concentrations from 0 to 100 μM; ref Brosnan et al. [2015]; cited from earlier work

In the case of `COc1cc(OC)nc(NC(=O)NS(=O)(=O)c2cc(NC=O)ccc2C(=O)N(C)C)n1` [Foramsulfuron], the IC50 [1] is reported as 7.5 nM, the “Resistance factor A205V” value [2] is reported as 12 and the “Resistance factor A205F” value [3] is reported as 5160. For the same compound, the “Resistance factor W574L” value [4] was 2013, the “Annual bluegrass control RP1” value ([5]; RP1, 28 days after treatment, minimum of two tillers, foramsulfuron 29, sulfometuron 105 g ha^−1) was 8% and the “Annual bluegrass height RP1” value ([5]; RP1, plant height 28 days after treatment, foramsulfuron 29, sulfometuron 105 g ha^-1, non-treated 118 mm) was 77 mm. For the same compound, the “Annual bluegrass control RP2” value ([5]; RP2, 28 days after treatment, minimum of two tillers, foramsulfuron 29, sulfometuron 105 g ha^−1) was 2%, the “Annual bluegrass height RP2” value ([5]; RP2, plant height 28 days after treatment, foramsulfuron 29, sulfometuron 105 g ha^-1, non-treated 129 mm) was 74 mm and the “Annual bluegrass control RP3” value ([5]; RP3, 28 days after treatment, minimum of two tillers, foramsulfuron 29, sulfometuron 105 g ha^−1) was 5%. For the same compound, the “Annual bluegrass height RP3” value ([5]; RP3, plant height 28 days after treatment, foramsulfuron 29, sulfometuron 105 g ha^-1, non-treated 173 mm) was 100 mm, the “Annual bluegrass control RP4” value ([5]; RP4, 28 days after treatment, minimum of two tillers, foramsulfuron 29, sulfometuron 105 g ha^−1) was 11% and the “Annual bluegrass height RP4” value ([5]; RP4, plant height 28 days after treatment, foramsulfuron 29, sulfometuron 105 g ha^-1, non-treated 140 mm) was 85 mm. For the same compound, the “Annual bluegrass control RP5” value ([5]; RP5, 28 days after treatment, minimum of two tillers, foramsulfuron 29, sulfometuron 105 g ha^−1) was 8%, the “Annual bluegrass height RP5” value ([5]; RP5, plant height 28 days after treatment, foramsulfuron 29, sulfometuron 105 g ha^-1, non-treated 114 mm) was 75 mm and the “Annual bluegrass control RP6” value ([5]; RP6, 28 days after treatment, minimum of two tillers, foramsulfuron 29, sulfometuron 105 g ha^−1) was 46%. The “Annual bluegrass height RP6” value ([5]; RP6, plant height 28 days after treatment, foramsulfuron 29, sulfometuron 105 g ha^-1, non-treated 106 mm) was 68 mm, the “Annual bluegrass control RP7” value ([5]; RP7, 28 days after treatment, minimum of two tillers, foramsulfuron 29, sulfometuron 105 g ha^−1) was 5% and the “Annual bluegrass height RP7” value ([5]; RP7, plant height 28 days after treatment, foramsulfuron 29, sulfometuron 105 g ha^-1, non-treated 125 mm) was 75 mm. For the same compound, the “Annual bluegrass control RP8” value ([5]; RP8, 28 days after treatment, minimum of two tillers, foramsulfuron 29, sulfometuron 105 g ha^−1) was 3%, the “Annual bluegrass height RP8” value ([5]; RP8, plant height 28 days after treatment, foramsulfuron 29, sulfometuron 105 g ha^-1, non-treated 132 mm) was 94 mm and the “Annual bluegrass control S” value ([5]; susceptible (S), 28 days after treatment, minimum of two tillers, foramsulfuron 29, sulfometuron 105 g ha^−1) was 93%. The “Annual bluegrass height S” value ([5]; susceptible (S), plant height 28 days after treatment, foramsulfuron 29, sulfometuron 105 g ha^-1, non-treated 111 mm) was 18 mm and the “differences in the in vitro activity of ALS in POAAN-R3 and susceptible plants” value [6] was “no differences”.
